The results in this text go back to paper PMC4317638 (Emerging Microbes & Infections, 2014).

Data set [1] concerns Ebola VLP entry into HeLa cells. Kind of data set: microbe, parasite or virus in culture. The class given is cell-based, Ebola virus. The note with it: for pIC50 / IC90 / Emax: Zaire ebolavirus, HeLa; for IC90: read-out: Block Ebola VLP entry IC90; for Emax: read-out: Block Ebola VLP entry Max. Inh.
The nature of another data set: in vitro. The note with it: human, Cytotoxicity IC50.
Where [2] appears, read: read-out: Block Ebola VLP entry IC50.
The mark [3] stands for this setting: read-out: IC50 of blocking Ebola VLP entry.

pIC50: −log10 of the molar value. Where a name gives a salt, the structure may show the parent alone. Read-outs that look alike come from different tables or passages of the source.

Regarding `CCCSc1ccc2nc(NC(=O)OC)[nH]c2c1` [Albendazole], in data set [1], the “Selectivity Index” value was >102 fold, the IC90 turned out to be 20.7 µM and the Emax was found to be 76%. Moreover, the negative-log IC50 (pIC50) in data set [1] (setting [2]) was 5.31. The pIC50 in data set [1] (setting [3]) was 5.32. For the same compound, the pIC50 in the data set “in vitro” is < 3.30.
With `CCN(CCCc1ccccc1)CCCc1ccccc1` [Alverine Citrate], in data set [1], the “Selectivity Index” value is >58 fold, the concentration for an effect of 90% (IC90) was found to be 21.8 µM and the Emax was 90%. For the same compound, the pIC50 in data set [1] (setting [2]) is 5.06. Further, the negative logarithm of the IC50 (pIC50) in the data set “in vitro” was < 3.30.
As for `CCN(CC)Cc1cc(Nc2ccnc3cc(Cl)ccc23)ccc1O` [Amodiaquine], in data set [1], the “Selectivity Index” value was >113 fold, the IC90 was 27.3 µM and the Emax was 106%. The pIC50 in data set [1] (setting [2]) was 5.35. Further, in “in vitro”, the pIC50 is < 3.30.
`CCN(CC)CCCN(c1ccccc1)C1Cc2ccccc2C1` [Aprindine]: in data set [1], the “Selectivity Index” value is reported as >65 fold, the IC90 came out at 26.6 µM and the Emax turned out to be 93%. Besides, the negative logarithm of the IC50 (pIC50) in data set [1] (setting [2]) is 5.11. In “in vitro”, the pIC50 was < 3.30.
`O=C(CCN1CCN2CCCC2C1)N1c2ccccc2Sc2ccc(Cl)cc21` (centres unmarked) [Azaclorzine]: in data set [1], the “Selectivity Index” value is >53 fold, the IC90 is 37.1 µM and the Emax was 88%. Further, the pIC50 in data set [1] (setting [2]) was 5.03. Further, in the data set “in vitro”, the negative logarithm of the IC50 (pIC50) was < 3.30.
On to `CC[C@H]1OC(=O)[C@H](C)[C@@H](O[C@H]2C[C@@](C)(OC)[C@@H](O)[C@H](C)O2)[C@H](C)[C@@H](O[C@@H]2O[C@H](C)C[C@H](N(C)C)[C@H]2O)[C@](C)(O)C[C@@H](C)CN(C)[C@H](C)[C@@H](O)[C@]1(C)O` [Azithromycin], for which, in data set [1], the “Selectivity Index” value is listed as >179 fold, the IC90 is 15.8 µM and the Emax worked out at 100%. The pIC50 in data set [1] (setting [2]) is 5.55. Further, the negative-log IC50 (pIC50) in “in vitro” was < 3.30.
`Cc1c(-c2ccc(O)cc2)n(Cc2ccc(OCCN3CCCCCC3)cc2)c2ccc(O)cc12` [Bazedoxifene] showed a pIC50 in “in vitro” of 4.36.
As for `CN1[C@@H]2CC[C@H]1C[C@@H](OC(c1ccccc1)c1ccccc1)C2` [Benztropine], in data set [1], the IC90 stood at 8.25 µM and the Emax was 100%. This compound had a pIC50 in “in vitro” of 3.60.
Take `Cc1ccc(C(=O)Oc2ccc(C(O)CNC(C)(C)C)cc2OC(=O)c2ccc(C)cc2)cc1` (centres unmarked) [Bitolterol]: in data set [1], the “Selectivity Index” value amounted to 41 fold, the IC90 was 22.6 µM and the Emax amounted to 85%. Besides, in data set [1] (setting [2]), the pIC50 is 5.21. Besides, the negative logarithm of the IC50 (pIC50) in the data set “in vitro” is 3.60.
For `COc1cc(Nc2c(C#N)cnc3cc(OCCCN4CCN(C)CC4)c(OC)cc23)c(Cl)cc1Cl` [Bosutinib] the same measures were 11 fold, 21.3 µM, 101%, 5.41 and 4.36.
On to `CC(C)C[C@H](NC(=O)[C@H](CCc1ccccc1)NC(=O)CN1CCOCC1)C(=O)N[C@@H](Cc1ccccc1)C(=O)N[C@@H](CC(C)C)C(=O)[C@@]1(C)CO1` [Carfilzomib], for which, in data set [1], the “Selectivity Index” value is listed as >1156 fold, the IC90 amounted to 1.88 µM and the Emax was 57%. The negative logarithm of the IC50 (pIC50) in data set [1] (setting [2]) was 6.36. Further, the pIC50 in the data set “in vitro” is < 3.30.
For `COc1ccc2cc1Oc1ccc(cc1)C[C@H]1c3c(cc4c(c3Oc3cc5c(cc3OC)CCN(C)[C@@H]5C2)OCO4)CCN1C` [Cepharanthine] the same measures were 58 fold, 4.4 µM, 112%, 5.82 and 4.05.
Turning to `CCN(CC)CCCC(C)Nc1ccnc2cc(Cl)ccc12` (centres unmarked) [Chloroquine], in data set [1], the “Selectivity Index” value was >32 fold, the concentration for an effect of 90% (IC90) stood at 133 µM and the Emax turned out to be 98%. For the same compound, the pIC50 in data set [1] (setting [2]) was 4.82. Besides, the negative logarithm of the IC50 (pIC50) in “in vitro” was < 3.30.
As to `CC[C@H]1OC(=O)[C@H](C)[C@@H](O[C@H]2C[C@@](C)(OC)[C@@H](O)[C@H](C)O2)[C@H](C)[C@@H](O[C@@H]2O[C@H](C)C[C@H](N(C)C)[C@H]2O)[C@](C)(OC)C[C@@H](C)C(=O)[C@H](C)[C@@H](O)[C@]1(C)O` [Clarithromycin], in data set [1], the “Selectivity Index” value was >110 fold, the IC90 was 15.1 µM and the Emax came to 100%. In addition, the pIC50 in data set [1] (setting [2]) is 5.34. The negative logarithm of the IC50 (pIC50) in “in vitro” is < 3.30.
As to `CN(C)CCCN1c2ccccc2CCc2ccc(Cl)cc21` [Clomipramine], in data set [1], the IC90 was determined as 11.7 µM and the Emax worked out at 93%. The negative-log IC50 (pIC50) in “in vitro” was 4.19.
On to `COc1cc2c(c(OC)c1OC)-c1ccc(OC)c(=O)cc1[C@@H](NC(C)=O)CC2` [Colchicine], for which, in data set [1], the IC90 was found to be 0.354 µM and the Emax stood at 73%. The negative logarithm of the IC50 (pIC50) in the data set “in vitro” was < 3.30.
Regarding `CC1CCCCN1CCCOC(=O)c1ccc(OC2CCCCC2)cc1` (centres unmarked) [Cyclomethycaine], in data set [1], the “Selectivity Index” value is given as >65 fold, the 90% effect concentration (IC90) was determined as 19.6 µM and the Emax came to 86%. Further, the pIC50 in data set [1] (setting [2]) was 5.11. Moreover, in “in vitro”, the negative-log IC50 (pIC50) is < 3.30.
`COc1cccc2c1C(=O)c1c(O)c3c(c(O)c1C2=O)C[C@@](O)(C(C)=O)C[C@@H]3O[C@H]1C[C@H](N)[C@H](O)[C@H](C)O1` [Daunomycin]: in data set [1], the “Selectivity Index” value is given as >190 fold, the concentration for an effect of 90% (IC90) turned out to be 5.4 µM and the Emax was determined as 98%. The negative logarithm of the IC50 (pIC50) in data set [1] (setting [2]) is 5.58. The negative-log IC50 (pIC50) in the data set “in vitro” was < 3.30.
`C[C@H]1O[C@@H](O[C@H]2CC[C@@]3(C)[C@H](CC[C@@H]4[C@@H]3C[C@@H](O)[C@]3(C)[C@@H](C5=CC(=O)OC5)CC[C@]43O)C2)C[C@H](O)[C@@H]1O[C@H]1C[C@H](O)[C@H](O[C@H]2C[C@H](O)[C@H](O[C@@H]3O[C@H](CO)[C@@H](O)[C@H](O)[C@H]3O)[C@@H](C)O2)[C@@H](C)O1` [Deslanoside]: in data set [1], the “Selectivity Index” value turned out to be 515 fold, the concentration for an effect of 90% (IC90) was found to be 11.7 µM and the Emax stood at 66%. Further, the negative-log IC50 (pIC50) in data set [1] (setting [2]) was 6.31. In addition, the negative logarithm of the IC50 (pIC50) in the data set “in vitro” was 3.60.
For `CCCCc1oc2ccc(NS(C)(=O)=O)cc2c1C(=O)c1ccc(OCCCN(CCCC)CCCC)cc1` [Dronedarone] the same measures were 21 fold, 3.51 µM, 81%, 5.66 and 4.32.
As for `COc1cc2ncnc(Nc3ccc(F)c(Cl)c3)c2cc1OCCCN1CCOCC1` [Gefitinib], in data set [1], the IC90 turned out to be 17.9 µM.
Turning to `CN(C)CCCN1c2ccccc2CCc2ccccc21` [Imipramine], the pIC50 in “in vitro” was < 3.30.
Consider `CO[C@@H]1[C@@H](OC)[C@H](C)[C@@](O)(CC(=O)O)O[C@H]1[C@H](C)[C@H]1O[C@@]2(CC[C@@](C)([C@H]3CC[C@@](C)([C@@H]4O[C@@H]([C@H]5O[C@](C)(O)[C@H](C)C[C@@H]5C)C[C@@H]4O[C@@H]4C[C@H](OC)[C@@H](OC)[C@H](C)O4)O3)O2)C[C@H](O)[C@H]1C` [Maduramicin], for which, in data set [1], the “Selectivity Index” value is on record as 40 fold, the IC90 worked out at 3.94 µM and the Emax came out at 104%. In addition, in data set [1] (setting [2]), the pIC50 was 6.21. The pIC50 in “in vitro” is 4.61.
In the case of `CNCCCC12CCC(c3ccccc31)c1ccccc12` [Maprotiline], in data set [1], the IC90 was found to be 12.1 µM and the Emax stood at 100%. In addition, the pIC50 in “in vitro” is 3.84.
For `COC(=O)Nc1nc2ccc(C(=O)c3ccccc3)cc2[nH]1` [Mebendazole], in data set [1], the “Selectivity Index” value is listed as >145 fold, the concentration for an effect of 90% (IC90) was determined as 14 µM and the Emax worked out at 88%. The negative logarithm of the IC50 (pIC50) in data set [1] (setting [2]) was 5.46. The negative logarithm of the IC50 (pIC50) in data set [1] (setting [3]) is 5.47. Besides, the negative-log IC50 (pIC50) in “in vitro” is < 3.30.
On to `OC(c1cc(C(F)(F)F)nc2c(C(F)(F)F)cccc12)C1CCCCN1` (centres unmarked) [Mefloquine], for which, in data set [1], the “Selectivity Index” value turned out to be 16 fold, the concentration for an effect of 90% (IC90) turned out to be 13 µM and the Emax came to 94%. In data set [1] (setting [2]), the pIC50 is 5.56. Also, in “in vitro”, the negative-log IC50 (pIC50) was 4.36.
For `COCC(=O)O[C@]1(CCN(C)CCCc2nc3ccccc3[nH]2)CCc2cc(F)ccc2[C@@H]1C(C)C` [Mibefradil] the same measures were 10 fold, 7.34 µM, 96%, 5.36 and 4.36.
As for `O=C(Nc1ccc([N+](=O)[O-])cc1Cl)c1cc(Cl)ccc1O` [Niclosamide], in data set [1], the “Selectivity Index” value was >188 fold, the concentration for an effect of 90% (IC90) came out at 6.6 µM and the Emax turned out to be 81%. Besides, the pIC50 in data set [1] (setting [2]) was 5.58. Besides, in the data set “in vitro”, the pIC50 is < 3.30.
Consider `Cc1cn(-c2cc(NC(=O)c3ccc(C)c(Nc4nccc(-c5cccnc5)n4)c3)cc(C(F)(F)F)c2)cn1` [Nilotinib], for which, in data set [1], the “Selectivity Index” value was 2 fold, the IC90 is 104 µM and the Emax amounted to 100%. Moreover, in data set [1] (setting [2]), the negative logarithm of the IC50 (pIC50) was 4.61. Also, the negative logarithm of the IC50 (pIC50) in data set [1] (setting [3]) is 4.82. In addition, the pIC50 in the data set “in vitro” is 4.30.
In the case of `COC(=O)Nc1nc2ccc(C(=O)c3cccs3)cc2[nH]1` [Nocodazole], in data set [1], the “Selectivity Index” value is reported as >1242 fold, the IC90 came to 1.04 µM and the Emax was 87%. For the same compound, the pIC50 in data set [1] (setting [2]) was 6.40. Moreover, the pIC50 in data set [1] (setting [3]) is 6.40. Besides, the pIC50 in “in vitro” was < 3.30.
As to `CCCOc1ccc2nc(NC(=O)OC)[nH]c2c1` [Oxibendazole], in data set [1], the “Selectivity Index” value is recorded as >291 fold, the IC90 was determined as 3.75 µM and the Emax was determined as 57%. Moreover, the negative logarithm of the IC50 (pIC50) in data set [1] (setting [2]) is 5.76. Moreover, the pIC50 in “in vitro” was < 3.30.
Turning to `CC(=O)c1ccc2c(c1)N(CCCN1CCC(CCO)CC1)c1ccccc1S2` [Piperacetazine], in data set [1], the “Selectivity Index” value is on record as >52 fold, the IC90 was found to be 18.1 µM and the Emax was found to be 90%. Moreover, the pIC50 in data set [1] (setting [2]) was 5.01. The negative-log IC50 (pIC50) in “in vitro” was < 3.30.
As for `CN[C@H]1CC[C@@H](c2ccc(Cl)c(Cl)c2)c2ccccc21` [Zoloft, sertraline], the IC90 in data set [1] was found to be 9.08 µM.
Take Maraviroc: the “Activity in the Ebola VLP assay” value in data set [1] was “not active”.

The term pIC50 denotes −log10 of the IC50, conventionally taken in molar units. The IC90 is the concentration at which the effect reaches the 90% level.
